Experimental data from PubChem BioAssay (NCI).
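Five concentrations, 48 hours, 96-well plates. TGI denotes the concentration required for complete inhibition of growth.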

Tests used:
Test in all cases: NCI anticancer screen, dose series, 48 h
786-0 renal = tested on: 786-0 renal
A498 renal = tested on: A498 renal
A549 NSCLC = tested on: A549 NSCLC
ACHN renal = tested on: ACHN renal
BT-549 breast = tested on: BT-549 breast
CAKI-1 renal = tested on: CAKI-1 renal
CCRF-CEM leukemia = tested on: CCRF-CEM leukemia
COLO 205 colon = tested on: COLO 205 colon
DU-145 prostate = tested on: DU-145 prostate
EKVX NSCLC = tested on: EKVX NSCLC
HCC-2998 colon = tested on: HCC-2998 colon
HCT-116 colon = tested on: HCT-116 colon
HCT-15 colon = tested on: HCT-15 colon
HL-60(TB) leukemia = tested on: HL-60(TB) leukemia
HOP-62 NSCLC = tested on: HOP-62 NSCLC
HOP-92 NSCLC = tested on: HOP-92 NSCLC
HS 578T breast = tested on: HS 578T breast
HT29 colon = tested on: HT29 colon
IGROV1 ovarian = tested on: IGROV1 ovarian
K-562 leukemia = tested on: K-562 leukemia
KM12 colon = tested on: KM12 colon
LOX IMVI melanoma = tested on: LOX IMVI melanoma
M14 melanoma = tested on: M14 melanoma
MALME-3M melanoma = tested on: MALME-3M melanoma
MCF7 breast = tested on: MCF7 breast
MDA-MB-231 breast = tested on: MDA-MB-231 breast
MDA-MB-435 = tested on: MDA-MB-435
MDA-N = tested on: MDA-N
MOLT-4 leukemia = tested on: MOLT-4 leukemia
NCI-H226 lung = tested on: NCI-H226 lung
NCI-H23 lung = tested on: NCI-H23 lung
NCI-H460 lung = tested on: NCI-H460 lung
NCI-H522 lung = tested on: NCI-H522 lung
NCI/ADR-RES ovarian = tested on: NCI/ADR-RES ovarian
OVCAR-3 ovarian = tested on: OVCAR-3 ovarian
OVCAR-4 ovarian = tested on: OVCAR-4 ovarian
OVCAR-5 ovarian = tested on: OVCAR-5 ovarian
OVCAR-8 ovarian = tested on: OVCAR-8 ovarian
PC-3 prostate = tested on: PC-3 prostate
SF-268 CNS = tested on: SF-268 CNS
SF-295 CNS = tested on: SF-295 CNS
SF-539 CNS = tested on: SF-539 CNS
SK-MEL-2 melanoma = tested on: SK-MEL-2 melanoma
SK-MEL-28 melanoma = tested on: SK-MEL-28 melanoma
SK-MEL-5 melanoma = tested on: SK-MEL-5 melanoma
SK-OV-3 ovarian = tested on: SK-OV-3 ovarian
SN12C renal = tested on: SN12C renal
SNB-19 CNS = tested on: SNB-19 CNS
SR leukemia = tested on: SR leukemia
SW-620 colon = tested on: SW-620 colon
T-47D breast = tested on: T-47D breast
TK-10 renal = tested on: TK-10 renal
U251 CNS = tested on: U251 CNS
UACC-257 melanoma = tested on: UACC-257 melanoma
UACC-62 melanoma = tested on: UACC-62 melanoma
UO-31 renal = tested on: UO-31 renal
RXF 393 renal = tested on: RXF 393 renal
SNB-75 CNS = tested on: SNB-75 CNS
RPMI-8226 leukemia = tested on: RPMI-8226 leukemia

COC(=O)/C=C/c1ccc2c(c1)[C@H](C(=O)OC)[C@@H](c1ccc(O)cc1)O2
TGI (786-0 renal): > 100 µM | TGI (A498 renal): > 100 µM | TGI (A549 NSCLC): > 100 µM | TGI (ACHN renal): > 100 µM | TGI (BT-549 breast): 46.4 µM | TGI (CAKI-1 renal): > 100 µM | TGI (CCRF-CEM leukemia): 78 µM | TGI (COLO 205 colon): 89.4 µM | TGI (DU-145 prostate): > 100 µM | TGI (EKVX NSCLC): > 100 µM | TGI (HCC-2998 colon): 59.4 µM | TGI (HCT-116 colon): > 100 µM | TGI (HCT-15 colon): 47.3 µM | TGI (HL-60(TB) leukemia): 67.6 µM | TGI (HOP-62 NSCLC): > 100 µM | TGI (HOP-92 NSCLC): > 100 µM | TGI (HS 578T breast): 96.4 µM | TGI (HT29 colon): > 100 µM | TGI (IGROV1 ovarian): > 100 µM | TGI (K-562 leukemia): > 100 µM | TGI (KM12 colon): 88.1 µM | TGI (LOX IMVI melanoma): 89.4 µM | TGI (M14 melanoma): 42.7 µM | TGI (MALME-3M melanoma): 80.6 µM | TGI (MCF7 breast): 48.6 µM | TGI (MDA-MB-231 breast): > 100 µM | TGI (MDA-MB-435): 16.2 µM | TGI (MDA-N): 95.7 µM | TGI (MOLT-4 leukemia): 96.5 µM | TGI (NCI-H226 lung): > 100 µM | TGI (NCI-H23 lung): > 100 µM | TGI (NCI-H460 lung): > 100 µM | TGI (NCI-H522 lung): 74.2 µM | TGI (NCI/ADR-RES ovarian): > 100 µM | TGI (OVCAR-3 ovarian): 28.2 µM | TGI (OVCAR-4 ovarian): > 100 µM | TGI (OVCAR-5 ovarian): > 100 µM | TGI (OVCAR-8 ovarian): > 100 µM | TGI (PC-3 prostate): > 100 µM | TGI (SF-268 CNS): 83.8 µM | TGI (SF-295 CNS): > 100 µM | TGI (SF-539 CNS): > 100 µM | TGI (SK-MEL-2 melanoma): 31.2 µM | TGI (SK-MEL-28 melanoma): > 100 µM | TGI (SK-MEL-5 melanoma): 28.1 µM | TGI (SK-OV-3 ovarian): > 100 µM | TGI (SN12C renal): > 100 µM | TGI (SNB-19 CNS): > 100 µM | TGI (SR leukemia): 45.8 µM | TGI (SW-620 colon): > 100 µM | TGI (T-47D breast): > 100 µM | TGI (TK-10 renal): > 100 µM | TGI (U251 CNS): > 100 µM | TGI (UACC-257 melanoma): > 100 µM | TGI (UACC-62 melanoma): > 100 µM | TGI (UO-31 renal): 70 µM

O=C(/C=C/c1ccccc1Br)c1ccccc1
TGI (786-0 renal): 4.39 µM | TGI (A498 renal): 11.1 µM | TGI (A549 NSCLC): 25.3 µM | TGI (ACHN renal): 3.73 µM | TGI (BT-549 breast): 26.4 µM | TGI (CAKI-1 renal): 8.37 µM | TGI (CCRF-CEM leukemia): 3.85 µM | TGI (COLO 205 colon): 28.6 µM | TGI (DU-145 prostate): 20.1 µM | TGI (EKVX NSCLC): 26.4 µM | TGI (HCC-2998 colon): 7.68 µM | TGI (HCT-116 colon): 3.85 µM | TGI (HCT-15 colon): 6.36 µM | TGI (HL-60(TB) leukemia): 3.07 µM | TGI (HOP-62 NSCLC): 26.2 µM | TGI (HOP-92 NSCLC): 32.4 µM | TGI (HS 578T breast): 11.3 µM | TGI (HT29 colon): 9.42 µM | TGI (IGROV1 ovarian): 9.91 µM | TGI (K-562 leukemia): 5.14 µM | TGI (KM12 colon): 6.53 µM | TGI (LOX IMVI melanoma): 2.64 µM | TGI (M14 melanoma): 15.1 µM | TGI (MCF7 breast): 2.27 µM | TGI (MDA-MB-231 breast): 27.5 µM | TGI (MDA-MB-435): 6.57 µM | TGI (MDA-N): 18.4 µM | TGI (NCI-H226 lung): 36.6 µM | TGI (NCI-H23 lung): 12.6 µM | TGI (NCI-H460 lung): 16.3 µM | TGI (NCI-H522 lung): 9.73 µM | TGI (NCI/ADR-RES ovarian): 17.7 µM | TGI (OVCAR-3 ovarian): 22.1 µM | TGI (OVCAR-4 ovarian): 6.03 µM | TGI (OVCAR-5 ovarian): 34.2 µM | TGI (OVCAR-8 ovarian): 8.31 µM | TGI (PC-3 prostate): 23.5 µM | TGI (RXF 393 renal): 20.1 µM | TGI (SF-268 CNS): 10.5 µM | TGI (SF-295 CNS): 23.4 µM | TGI (SF-539 CNS): 15.6 µM | TGI (SK-MEL-2 melanoma): 31.3 µM | TGI (SK-MEL-28 melanoma): 15.8 µM | TGI (SK-MEL-5 melanoma): 22.6 µM | TGI (SK-OV-3 ovarian): 30.5 µM | TGI (SN12C renal): 21.7 µM | TGI (SNB-19 CNS): 23.2 µM | TGI (SNB-75 CNS): 25.4 µM | TGI (SW-620 colon): 3.02 µM | TGI (T-47D breast): 15.5 µM | TGI (TK-10 renal): 9.83 µM | TGI (U251 CNS): 2.9 µM | TGI (UACC-257 melanoma): 24.1 µM | TGI (UACC-62 melanoma): 23.6 µM | TGI (UO-31 renal): 11.3 µM

O=C1/C(=C/c2ccc(OC(=O)c3ccc(Cl)cc3)cc2)CCC/C1=C\c1ccc(OC(=O)c2ccc(Cl)cc2)cc1
TGI (786-0 renal): > 100 µM | TGI (A549 NSCLC): > 100 µM | TGI (ACHN renal): > 100 µM | TGI (BT-549 breast): > 100 µM | TGI (CAKI-1 renal): > 100 µM | TGI (CCRF-CEM leukemia): > 100 µM | TGI (COLO 205 colon): > 100 µM | TGI (DU-145 prostate): > 100 µM | TGI (EKVX NSCLC): > 100 µM | TGI (HCC-2998 colon): > 100 µM | TGI (HCT-116 colon): > 100 µM | TGI (HCT-15 colon): > 100 µM | TGI (HL-60(TB) leukemia): > 100 µM | TGI (HOP-62 NSCLC): > 100 µM | TGI (HOP-92 NSCLC): > 100 µM | TGI (HS 578T breast): > 100 µM | TGI (HT29 colon): > 100 µM | TGI (IGROV1 ovarian): > 100 µM | TGI (KM12 colon): > 100 µM | TGI (LOX IMVI melanoma): > 100 µM | TGI (M14 melanoma): > 100 µM | TGI (MCF7 breast): > 100 µM | TGI (MDA-MB-231 breast): > 100 µM | TGI (MDA-MB-435): > 100 µM | TGI (MDA-N): > 100 µM | TGI (MOLT-4 leukemia): > 100 µM | TGI (NCI-H23 lung): > 100 µM | TGI (NCI-H460 lung): > 100 µM | TGI (NCI-H522 lung): > 100 µM | TGI (NCI/ADR-RES ovarian): > 100 µM | TGI (OVCAR-3 ovarian): > 100 µM | TGI (OVCAR-4 ovarian): > 100 µM | TGI (OVCAR-5 ovarian): > 100 µM | TGI (OVCAR-8 ovarian): > 100 µM | TGI (PC-3 prostate): > 100 µM | TGI (RPMI-8226 leukemia): > 100 µM | TGI (SF-268 CNS): > 100 µM | TGI (SF-539 CNS): > 100 µM | TGI (SK-MEL-2 melanoma): > 100 µM | TGI (SK-MEL-28 melanoma): > 100 µM | TGI (SK-MEL-5 melanoma): > 100 µM | TGI (SN12C renal): > 100 µM | TGI (SNB-19 CNS): > 100 µM | TGI (SNB-75 CNS): 60.8 µM | TGI (SR leukemia): > 100 µM | TGI (SW-620 colon): > 100 µM | TGI (T-47D breast): > 100 µM | TGI (TK-10 renal): > 100 µM | TGI (U251 CNS): > 100 µM | TGI (UACC-257 melanoma): > 100 µM | TGI (UACC-62 melanoma): > 100 µM | TGI (UO-31 renal): > 100 µM
